What was measured:
[1] = tested on: phosphorylation of MAP kinase (ERK) in murine colon 26 (C26) carcinoma cells; test: Cellular inhibition of ERK phosphorylation, C26ELSA (pERK ELISA format); type: cell-based; settings: Mus musculus, 1 h, C26 cells treated with test compound for one hour at 37° C.
Experimental: MEK inhibitors were evaluated by determining their ability to inhibit phosphorylation of MAP kinase (ERK) in murine colon 26 (C26) carcinoma cells. Since ERK1 and ERK2 represent the only known substrates for MEK1and MEK2, the measurement of inhibition of ERK phosphorylation in cells provides direct read out of cellular MEK inhibition by the compounds of the invention. Detection of phosphorylation of ERK was carried out either by Western blot or ELISA format. Briefly, the assays involve treatment of exponentially growing C26 cells with varying concentrations of the test compound (or vehicle control) for one hour at 37° C. For Western blot assay, cells were rinsed free of compound/vehicle and lysed in a solution containing 70 mM NaCl, 50 mM glycerol phosphate, 10 mM HEPES, pH 7.4, 1% Triton X-100, 1 mM Na3VO4, 100 μM PMSF, 10 μM leupeptin and 10 μM pepstatin. Supernatants were then subjected to gel electrophoresis and hybridized to a primary antibody recognizing dually phosphorylated ERK1 and ERK2. To evaluate total MAPK levels, blots were subsequently ‘stripped’ and re-probed with a 1:1 mixture of polyclonal antibodies recognizing unphosphorylated ERK1 and ERK2. For pERK ELISA assay, pERK TiterZyme Enzyme immunometric Assay kits were acquired from Assay Designs, Inc (Ann Arbor, Mich.). Briefly, cells were harvested in lysis solution containing 50 mM β-glycerophosphate, 10 mM HEPES, ph7.4, 70 mM NaCl, 2 mM EDTA and 1% SDS and protein lysates were diluted 1:15 with supplied Assay buffer prior to the execution of the assay. The subsequent steps were carried out essentially as recommended by the manufacturer.
The inhibition data generated by the above protocols is disclosed in Table I. If several concentrations of inhibitor were tested, IC50 values (the concentration which gives 50% inhibition) were determined graphically from the dose response curve for % inhibition. Otherwise, percent inhibitions at measured concentrations are reported.

Structure (SMILES) | IC50 [1] [nM] | melting point [°C]
Cn1cc(C(=O)NCCO)c(Nc2ccc(CCCO)cc2F)cc1=O [Example 7, 4-[2-Fluoro-4-(3-hydroxypropyl)anilino]-N-(2-hydroxyethyl)-1-methyl-6-oxo-1,6-dihydro-3-pyridinecarboxamide] | ≥ 5000 | 177 to 179
Cn1cc(C(=O)NCCCO)c(Nc2ccc(CCCO)cc2F)cc1=O [Example 9, 4-[2-Fluoro-4-(3-hydroxypropyl)anilino]-N-(3-hydroxypropyl)-1-methyl-6-oxo-1,6-dihydro-3-pyridinecarboxamide] | ≥ 5000 | 161 to 164
O=C(NCCO)c1c[nH]c(=O)cc1Nc1ccc(I)cc1F [Example 11, 4-(2-Fluoro-4-iodoanilino)-N-(2-hydroxyethyl)-6-oxo-1,6-dihydro-3-pyridinecarboxamide] | ≥ 5000 | 254 to 256
O=C(NCCCO)c1c[nH]c(=O)cc1Nc1ccc(I)cc1F [Example 14, 4-(2-Fluoro-4-iodoanilino)-N-(3-hydroxypropyl)-6-oxo-1,6-dihydro-3-pyridinecarboxamide] | ≥ 5000 | 253 to 255
NC(=O)c1c[nH]c(=O)cc1Nc1ccc(I)cc1F [Example 19, 4-(2-Fluoro-4-iodoanilino)-6-oxo-1,6-dihydro-3-pyridinecarboxamide] | 110 | 320 to 325
O=C(O)Cn1cc(C(=O)NCCCO)c(Nc2ccc(I)cc2F)cc1=O [Example 24, (4-(2-Fluoro-4-iodoanilino)-5-{[(3-hydroxypropyl)amino]carbonyl}-2-oxo-1(2H)-pyridinyl)acetic acid] | ≥ 5000 | 199 to 202
C=CCn1cc(C(N)=O)c(Nc2ccc(I)cc2F)cc1=O [Example 30, 1-Allyl-4-(2-fluoro-4-iodoanilino)-6-oxo-1,6-dihydro-3-pyridinecarboxamide] | 430 | 215 to 217
Cc1ccc(Nc2cc(=O)n(C)cc2C(=O)NOCCO)c(F)c1 [Example 35, 4-(2-Fluoro-4-methylanilino)-N-(2-hydroxyethoxy)-1-methyl-6-oxo-1,6-dihydro-3-pyridinecarboxamide] |  | 110 to 115
Cc1ccc(Nc2cc(=O)n(C)cc2C(=O)NCCCO)c(F)c1 [Example 36, 4-(2-Fluoro-4-methylanilino)-N-(3-hydroxypropyl)-1-methyl-6-oxo-1,6-dihydro-3-pyridinecarboxamide] |  | 142 to 145
Cn1cc(C(=O)NOCCO)c(Nc2ccc(Br)cc2F)cc1=O [Example 38, 4-(4-Bromo-2-fluoroanilino)-N-(2-hydroxyethoxy)-1-methyl-6-oxo-1,6-dihydro-3-pyridinecarboxamide] |  | 124 to 128
Cn1cc(C(=O)NCCCO)c(Nc2ccc(Br)cc2F)cc1=O [Example 39, 4-(4-Bromo-2-fluoroanilino)-N-(3-hydroxypropyl)-1-methyl-6-oxo-1,6-dihydro-3-pyridinecarboxamide] |  | 167 to 170
Cn1cc(C(=O)NCC(O)CO)c(Nc2ccc(I)cc2F)cc1=O (centres unmarked) [Example 45, N-(2,3-Dihydroxypropyl)-4-(2-fluoro-4-iodoanilino)-1-methyl-6-oxo-1,6-dihydro-3-pyridinecarboxamide] |  | 96 to 101
Cn1cc(C(=O)NC(CO)CO)c(Nc2ccc(I)cc2F)cc1=O [Example 46, 4-(2-Fluoro-4-iodoanilino)-N-[2-hydroxy-1-(hydroxymethyl)ethyl]-1-methyl-6-oxo-1,6-dihydro-3-pyridinecarboxamide] |  | 93 to 98
CC(CO)NC(=O)c1cn(C)c(=O)cc1Nc1ccc(I)cc1F (centres unmarked) [Example 49, 4-(2-Fluoro-4-iodoanilino)-N-(2-hydroxy-1-methylethyl)-1-methyl-6-oxo-1,6-dihydro-3-pyridinecarboxamide] |  | 198 to 202
CC(O)CNC(=O)c1cn(C)c(=O)cc1Nc1ccc(I)cc1F (centres unmarked) [Example 50, 4-(2-Fluoro-4-iodoanilino)-N-(2-hydroxypropyl)-1-methyl-6-oxo-1,6-dihydro-3-pyridinecarboxamide] |  | 161 to 166
Cn1cc(C(=O)NCCCN)c(Nc2ccc(I)cc2F)cc1=O [Example 53, N-(3-Aminopropyl)-4-(2-fluoro-4-iodoanilino)-1-methyl-6-oxo-1,6-dihydro-3-pyridinecarboxamide] |  | 201 to 206
Cn1cc(C(=O)O)c(Nc2ccc(Cl)c(Cl)c2Cl)cc1=O [Example 65, 1-Methyl-6-oxo-4-(2,3,4-trichloro-phenylamino)-1,6-dihydro-pyridine-3-carboxylic acid] |  | 258 to 261
CSc1ccc(Nc2cc(=O)n(C)cc2C(=O)NCCCO)c(F)c1 [Example 85, 4-(2-Fluoro-4-methylsulfanyl-phenylamino)-1-methyl-6-oxo-1,6-dihydro-pyridine-3-carboxylic acid (3-hydroxy-propyl)-amide] | 150 | 
CSc1ccc(Nc2cc(=O)n(C)cc2-c2nnc(NCCO)o2)c(F)c1 [Example 90, 4-(2-Fluoro-4-methylsulfanyl-phenylamino)-5-[5-(2-hydroxy-ethylamino)[1,3,4]oxadiazol-2-yl]-1-methyl-1H-pyridin-2-one] | > 5000 | 
CSc1ccc(Nc2cc(=O)n(C)cc2-c2nnc(NC(CO)CO)o2)c(F)c1 [Example 91, 4-(2-Fluoro-4-methylsulfanyl-phenylamino)-5-[5-(2-hydroxy-1-hydroxymethyl-ethylamino)-[1,3,4]oxadiazol-2-yl]-1-methyl-1H-pyridin-2-one] | > 1000 | 
CSc1ccc(Nc2cc(=O)n(C)cc2-c2nnc(NCC(O)CO)o2)c(F)c1 (centres unmarked) [Example 92, 5-[5-(2,3-dihydroxy-propylamino)-[1,3,4]oxadiazol-2-yl]-4-(2-fluoro-4-methylsulfanyl-phenylamino)-1-methyl-1H-pyridine-2-one] | 1240 | 

The remaining lines, values ahead:

IC50 [1] [nM] | melting point [°C] | Structure (SMILES)
4.4 |  | Cn1cc(C(N)=O)c(Nc2ccc(I)cc2F)cc1=O [Example 10, 4-(2-Fluoro-4-iodoanilino)-1-methyl-6-oxo-1,6-dihydro-3-pyridinecarboxamide]
21 | 269 to 272 | C#Cc1ccc(Nc2cc(=O)n(C)cc2C(N)=O)c(F)c1 [Example 17, 4-(4-Ethynyl-2-fluoroanilino)-1-methyl-6-oxo-1,6-dihydro-3-pyridinecarboxamide]
630 | 214 to 216 | Cn1cc(C(N)=O)c(Nc2ccc(CCCO)cc2F)cc1=O [Example 21, 4-[2-Fluoro-4-(3-hydroxypropyl)anilino}-1-methyl-6-oxo-1,6-dihydro-3-pyridinecarboxamide]
≥ 5000 | 285 to 288 | Cc1ccc(Nc2cc(=O)n(C)cc2C(N)=O)c(F)c1 [Example 37, 4-(2-Fluoro-4-methylanilino)-1-methyl-6-oxo-1,6-dihydro-3-pyridinecarboxamide]
120 | 282 to 284 | Cn1cc(C(N)=O)c(Nc2ccc(Br)cc2F)cc1=O [Example 40, 4-(4-Bromo-2-fluoroanilino)-1-methyl-6-oxo-1,6-dihydro-3-pyridinecarboxamide]
 | 254 to 257 | Cn1cc(C(N)=O)c(Nc2ccc3ccccc3c2)cc1=O [Example 43, 1-Methyl-4-(2-naphthylamino)-6-oxo-1,6-dihydro-3-pyridinecarboxamide]
 | 106 to 111 | CN(C)C(=O)c1cn(C)c(=O)cc1Nc1ccc(I)cc1F [Example 52, 4-(2-Fluoro-4-iodoanilino)-N,N,1-trimethyl-6-oxo-1,6-dihydro-3-pyridinecarboxamide]
 | 261 to 266 | Cn1cc(C(N)=O)c(Nc2ccc(C#N)cc2F)cc1=O [Example 54, 4-(4-Cyano-2-fluoroanilino)-1-methyl-6-oxo-1,6-dihydro-3-pyridinecarboxamide]
 | 254 to 257 | Cn1cc(C(=O)O)c(Nc2ccc(I)cc2F)cc1=O [Example 55, 4-(2-fluoro-4-iodoanilino)-1-methyl-6-oxo-1,6-dihydro-3-pyridinecarboxylic acid]
 | > 250 | Cn1cc(C(N)=O)c(Nc2ccc(Cl)c(Cl)c2)cc1=O [Example 56, 4-(3,4-Dichloro-phenylamino)-1-methyl-6-oxo-1,6-dihydro-pyridine-3-carboxylic acid amide]
 | 238 to 242 | Cc1ccc(Nc2cc(=O)n(C)cc2C(=O)O)cc1C [Example 63, 4-(3,4-Dimethyl-phenylamino)-1-methyl-6-oxo-1,6-dihydro-pyridine-3-carboxylic acid]
 | 218 to 220 | Cn1cc(C(=O)O)c(Nc2ccc3c(c2)CCC3)cc1=O [Example 64, 4-(Indan-5-ylamino)-1-methyl-6-oxo-1,6-dihydro-pyridine-3-carboxylic acid]
